Patent publication US11109593B2, “Isoxazolin-5-one derivative and herbicide containing same as active ingredient” (HOKKO CHEMICAL INDUSTRY CO., LTD., priority 2017, dated 2021)

These molecules were tested on Scirpus juncoides (assay: Test Example 2: herbicidal effect test by treatment during growing period in paddy rice cultivation (seven days after seeding)). Details: 120 g/10a active ingredient, assessed 14 days after treatment, dry weight vs untreated area.
Type: in vivo
How it was run: (§1)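 Post-emergence paddy water application: compounds were formulated as emulsions, diluted and dropped into flooded pots seven days after sowing at a rate equivalent to 120 g per 10 ares. Efficacy was taken as dry-weight reduction relative to untreated controls after 14 days.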

Row | SMILES | Herbicidal rate (%) Scirpus juncoides [%]
1 | CCC(C)Cn1oc(=O)c(Cc2ccccc2N(S(C)(=O)=O)S(=O)(=O)C(F)(F)F)c1C (stereo not drawn) [Compound 1-895] | 90
2 | Cc1ccc(C(C)n2oc(=O)c(Cc3ccccc3NS(=O)(=O)C(F)(F)F)c2C)cc1 (stereo not drawn) [Compound 1-208] | 80
3 | CSCCn1oc(=O)c(Cc2ccccc2N(C(=O)CC(C)C)S(=O)(=O)C(F)(F)F)c1C [Compound 1-358] | 90

These molecules were tested on Echinochloa crus-galli in the same assay as above. Details: 120 g/10a active ingredient, assessed 14 days after treatment, dry weight vs untreated area.
Type: in vivo
How it was run: as §1

Row | SMILES | Herbicidal rate (%) Echinochloa crus-galli [%]
4 | CCC(C)Cn1oc(=O)c(Cc2ccccc2N(S(C)(=O)=O)S(=O)(=O)C(F)(F)F)c1C (stereo not drawn) [Compound 1-895] | 90
5 | Cc1ccc(C(C)n2oc(=O)c(Cc3ccccc3NS(=O)(=O)C(F)(F)F)c2C)cc1 (stereo not drawn) [Compound 1-208] | 90
6 | CSCCn1oc(=O)c(Cc2ccccc2N(C(=O)CC(C)C)S(=O)(=O)C(F)(F)F)c1C [Compound 1-358] | 90

The molecules below were run on broad leaf weeds (Lindernia pyxidaria and Monochoria vaginalis) in the same assay as above. Details: Lindernia pyxidaria, 120 g/10a active ingredient, assessed 14 days after treatment, dry weight vs untreated area.
Type: in vivo
How it was run: as §1

Row | SMILES | Herbicidal rate (%) Lindernia pyxidaria [%]
7 | CCC(C)Cn1oc(=O)c(Cc2ccccc2N(S(C)(=O)=O)S(=O)(=O)C(F)(F)F)c1C (stereo not drawn) [Compound 1-895] | 70
8 | Cc1ccc(C(C)n2oc(=O)c(Cc3ccccc3NS(=O)(=O)C(F)(F)F)c2C)cc1 (stereo not drawn) [Compound 1-208] | 60
9 | CSCCn1oc(=O)c(Cc2ccccc2N(C(=O)CC(C)C)S(=O)(=O)C(F)(F)F)c1C [Compound 1-358] | 90

Same assay, conditions: Monochoria vaginalis, 120 g/10a active ingredient, assessed 14 days after treatment, dry weight vs untreated area

Row | SMILES | Herbicidal rate (%) Monochoria vaginalis [%]
10 | CCC(C)Cn1oc(=O)c(Cc2ccccc2N(S(C)(=O)=O)S(=O)(=O)C(F)(F)F)c1C (stereo not drawn) [Compound 1-895] | 80
11 | Cc1ccc(C(C)n2oc(=O)c(Cc3ccccc3NS(=O)(=O)C(F)(F)F)c2C)cc1 (stereo not drawn) [Compound 1-208] | 90
12 | CSCCn1oc(=O)c(Cc2ccccc2N(C(=O)CC(C)C)S(=O)(=O)C(F)(F)F)c1C [Compound 1-358] | 90

These molecules were tested on Scirpus juncoides (assay: Test Example 1: herbicidal effect test by treatment of rice paddy soil (immediately after seeding)). Details: 120 g/10a active ingredient, dry weight vs untreated area, 14 days after treatment.
Type: in vivo
How it was run: (§2)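 Values are herbicidal rates (%) derived from average plant dry weight in treated versus untreated pots 14 days after treatment, run in duplicate. Treatment was a water-diluted emulsion dropped into flooded paddy soil right after sowing, at 120 g active ingredient per 10 ares.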

Row | SMILES | Herbicidal rate (%) Scirpus juncoides [%]
13 | CCC(C)Cn1oc(=O)c(Cc2ccccc2N(S(C)(=O)=O)S(=O)(=O)C(F)(F)F)c1C (stereo not drawn) [Compound 1-895] | 90
14 | Cc1ccc(C(C)n2oc(=O)c(Cc3ccccc3NS(=O)(=O)C(F)(F)F)c2C)cc1 (stereo not drawn) [Compound 1-208] | 90
15 | CSCCn1oc(=O)c(Cc2ccccc2N(C(=O)CC(C)C)S(=O)(=O)C(F)(F)F)c1C [Compound 1-358] | 90

These molecules were tested on Echinochloa crus-galli in the same assay as above. Details: 120 g/10a active ingredient, dry weight vs untreated area, 14 days after treatment.
Type: in vivo
How it was run: as §2

Row | SMILES | Herbicidal rate (%) Echinochloa crus-galli [%]
16 | CCC(C)Cn1oc(=O)c(Cc2ccccc2N(S(C)(=O)=O)S(=O)(=O)C(F)(F)F)c1C (stereo not drawn) [Compound 1-895] | 100
17 | Cc1ccc(C(C)n2oc(=O)c(Cc3ccccc3NS(=O)(=O)C(F)(F)F)c2C)cc1 (stereo not drawn) [Compound 1-208] | 90
18 | CSCCn1oc(=O)c(Cc2ccccc2N(C(=O)CC(C)C)S(=O)(=O)C(F)(F)F)c1C [Compound 1-358] | 90

The molecules below were run on broad leaf weeds (Lindernia pyxidaria and Monochoria vaginalis) in the same assay as above. Details: Lindernia pyxidaria, 120 g/10a active ingredient, dry weight vs untreated area, 14 days after treatment.
Type: in vivo
How it was run: as §2

Row | SMILES | Herbicidal rate (%) Lindernia pyxidaria [%]
19 | CCC(C)Cn1oc(=O)c(Cc2ccccc2N(S(C)(=O)=O)S(=O)(=O)C(F)(F)F)c1C (stereo not drawn) [Compound 1-895] | 90
20 | Cc1ccc(C(C)n2oc(=O)c(Cc3ccccc3NS(=O)(=O)C(F)(F)F)c2C)cc1 (stereo not drawn) [Compound 1-208] | 80
21 | CSCCn1oc(=O)c(Cc2ccccc2N(C(=O)CC(C)C)S(=O)(=O)C(F)(F)F)c1C [Compound 1-358] | 90

Same assay, conditions: Monochoria vaginalis, 120 g/10a active ingredient, dry weight vs untreated area, 14 days after treatment

Row | SMILES | Herbicidal rate (%) Monochoria vaginalis [%]
22 | CCC(C)Cn1oc(=O)c(Cc2ccccc2N(S(C)(=O)=O)S(=O)(=O)C(F)(F)F)c1C (stereo not drawn) [Compound 1-895] | 80
23 | Cc1ccc(C(C)n2oc(=O)c(Cc3ccccc3NS(=O)(=O)C(F)(F)F)c2C)cc1 (stereo not drawn) [Compound 1-208] | 90
24 | CSCCn1oc(=O)c(Cc2ccccc2N(C(=O)CC(C)C)S(=O)(=O)C(F)(F)F)c1C [Compound 1-358] | 90

What follows are molecules tested on southern crabgrass (assay: Test Example 3: herbicidal effect test by treatment of dry field farming soil (one day after seeding)). Details: 120 g/10a active ingredient, evaluated 14 days after treatment.
Type: in vivo
How it was run: (§3)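 Dry-field alluvium pots; weed seeds incorporated in top 1 cm; soil spray of diluted emulsion 1 d after seeding, 120 g a.i./10 a in 100 L/10 a. Readout: % reduction of dry weight vs untreated, day 14, duplicates.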

Row | SMILES | herbicidal rate, southern crabgrass [%]
25 | CCC(C)Cn1oc(=O)c(Cc2ccccc2N(S(C)(=O)=O)S(=O)(=O)C(F)(F)F)c1C (stereo not drawn) [Compound 1-895] | 100
26 | Cc1ccc(C(C)n2oc(=O)c(Cc3ccccc3NS(=O)(=O)C(F)(F)F)c2C)cc1 (stereo not drawn) [Compound 1-208] | 50
27 | CSCCn1oc(=O)c(Cc2ccccc2N(C(=O)CC(C)C)S(=O)(=O)C(F)(F)F)c1C [Compound 1-358] | 90

Each molecule was assayed on Chenopodium album in the same assay as above. Details: 120 g/10a active ingredient, evaluated 14 days after treatment.
Type: in vivo
How it was run: as §3

Row | SMILES | herbicidal rate, Chenopodium album [%]
28 | CCC(C)Cn1oc(=O)c(Cc2ccccc2N(S(C)(=O)=O)S(=O)(=O)C(F)(F)F)c1C (stereo not drawn) [Compound 1-895] | 50
29 | Cc1ccc(C(C)n2oc(=O)c(Cc3ccccc3NS(=O)(=O)C(F)(F)F)c2C)cc1 (stereo not drawn) [Compound 1-208] | 40
30 | CSCCn1oc(=O)c(Cc2ccccc2N(C(=O)CC(C)C)S(=O)(=O)C(F)(F)F)c1C [Compound 1-358] | 90

Each molecule was assayed on Amaranthus viridis in the same assay as above. Details: 120 g/10a active ingredient, evaluated 14 days after treatment.
Type: in vivo
How it was run: as §3

Row | SMILES | herbicidal rate, Amaranthus viridis [%]
31 | CCC(C)Cn1oc(=O)c(Cc2ccccc2N(S(C)(=O)=O)S(=O)(=O)C(F)(F)F)c1C (stereo not drawn) [Compound 1-895] | 80
32 | Cc1ccc(C(C)n2oc(=O)c(Cc3ccccc3NS(=O)(=O)C(F)(F)F)c2C)cc1 (stereo not drawn) [Compound 1-208] | 40
33 | CSCCn1oc(=O)c(Cc2ccccc2N(C(=O)CC(C)C)S(=O)(=O)C(F)(F)F)c1C [Compound 1-358] | 90

The molecules below were run on Echinochloa crus-galli in the same assay as above. Details: 120 g/10a active ingredient, evaluated 14 days after treatment.
Type: in vivo
How it was run: as §3

Row | SMILES | herbicidal rate, Echinochloa crus-galli [%]
34 | CCC(C)Cn1oc(=O)c(Cc2ccccc2N(S(C)(=O)=O)S(=O)(=O)C(F)(F)F)c1C (stereo not drawn) [Compound 1-895] | 100
35 | Cc1ccc(C(C)n2oc(=O)c(Cc3ccccc3NS(=O)(=O)C(F)(F)F)c2C)cc1 (stereo not drawn) [Compound 1-208] | 100
36 | CSCCn1oc(=O)c(Cc2ccccc2N(C(=O)CC(C)C)S(=O)(=O)C(F)(F)F)c1C [Compound 1-358] | 90

What follows are molecules tested on southern crabgrass (assay: Test Example 4: herbicidal effect test by treatment of leave and stem in dry field farming (seven days after seeding)). Details: 120 g/10a active ingredient; emulsion sprayed seven days after seeding; evaluated 14 days after treatment.
Type: in vivo
How it was run: (§4)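 Duplicate pots were scored 14 days post-spray by dry weight, herbicidal rate = {1 − treated/untreated average dry weight} × 100. The water-diluted emulsion, equivalent to 120 g active ingredient per 10 ares in 100 L, was applied seven days after sowing 20 seeds each into the upper 1 cm of alluvial soil.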

Row | SMILES | herbicidal effect (herbicidal rate), southern crabgrass [%]
37 | CCC(C)Cn1oc(=O)c(Cc2ccccc2N(S(C)(=O)=O)S(=O)(=O)C(F)(F)F)c1C (stereo not drawn) [Compound 1-895] | 80
38 | Cc1ccc(C(C)n2oc(=O)c(Cc3ccccc3NS(=O)(=O)C(F)(F)F)c2C)cc1 (stereo not drawn) [Compound 1-208] | 0
39 | CSCCn1oc(=O)c(Cc2ccccc2N(C(=O)CC(C)C)S(=O)(=O)C(F)(F)F)c1C [Compound 1-358] | 90

The molecules below were run on Chenopodium album in the same assay as above. Details: 120 g/10a active ingredient; emulsion sprayed seven days after seeding; evaluated 14 days after treatment.
Type: in vivo
How it was run: as §4

Row | SMILES | herbicidal effect (herbicidal rate), Chenopodium album [%]
40 | CCC(C)Cn1oc(=O)c(Cc2ccccc2N(S(C)(=O)=O)S(=O)(=O)C(F)(F)F)c1C (stereo not drawn) [Compound 1-895] | 60
41 | Cc1ccc(C(C)n2oc(=O)c(Cc3ccccc3NS(=O)(=O)C(F)(F)F)c2C)cc1 (stereo not drawn) [Compound 1-208] | 40
42 | CSCCn1oc(=O)c(Cc2ccccc2N(C(=O)CC(C)C)S(=O)(=O)C(F)(F)F)c1C [Compound 1-358] | 40

These molecules were tested on Amaranthus viridis in the same assay as above. Details: 120 g/10a active ingredient; emulsion sprayed seven days after seeding; evaluated 14 days after treatment.
Type: in vivo
How it was run: as §4

Row | SMILES | herbicidal effect (herbicidal rate), Amaranthus viridis [%]
43 | CCC(C)Cn1oc(=O)c(Cc2ccccc2N(S(C)(=O)=O)S(=O)(=O)C(F)(F)F)c1C (stereo not drawn) [Compound 1-895] | 50
44 | Cc1ccc(C(C)n2oc(=O)c(Cc3ccccc3NS(=O)(=O)C(F)(F)F)c2C)cc1 (stereo not drawn) [Compound 1-208] | 40
45 | CSCCn1oc(=O)c(Cc2ccccc2N(C(=O)CC(C)C)S(=O)(=O)C(F)(F)F)c1C [Compound 1-358] | 40

The molecules below were run on Echinochloa crus-galli in the same assay as above. Details: 120 g/10a active ingredient; emulsion sprayed seven days after seeding; evaluated 14 days after treatment.
Type: in vivo
How it was run: as §4

Row | SMILES | herbicidal effect (herbicidal rate), Echinochloa crus-galli [%]
46 | CCC(C)Cn1oc(=O)c(Cc2ccccc2N(S(C)(=O)=O)S(=O)(=O)C(F)(F)F)c1C (stereo not drawn) [Compound 1-895] | 80
47 | Cc1ccc(C(C)n2oc(=O)c(Cc3ccccc3NS(=O)(=O)C(F)(F)F)c2C)cc1 (stereo not drawn) [Compound 1-208] | 90
48 | CSCCn1oc(=O)c(Cc2ccccc2N(C(=O)CC(C)C)S(=O)(=O)C(F)(F)F)c1C [Compound 1-358] | 90
